From ChEMBL document CHEMBL6153155, “Novel Cyclohexyl Amido Acid Antagonists of Lysophosphatidic Acid Type 1 Receptor for the Treatment of Pulmonary Fibrosis” (ACS Med Chem Lett, 2025)
≈ marks a conversion by molar mass, not a printed value.

Key:
[1] = Toxicity in cynomolgus monkey assessed as decreased activity at 210 mg/kg/day, po bid measured after 4 days; assay type: organism-based, Macaca fascicularis; conditions: in vivo, 96 h, time 4 day
[2] = Metabolic stability in human liver microsomes assessed as intrinsic clearance measured per mg of protein at 0.5 uM measured upto 45 mins in presence of NADPH regenerating system by HPLC-MS/MS analysis; assay type: ADME, Microsome; conditions: read-out: CLH
[3] = Toxicity in cynomolgus monkey assessed as abnormal vocalization at 210 mg/kg/day, po bid measured after 4 days; assay type: organism-based, Macaca fascicularis; conditions: in vivo, 96 h, time 4 day
[4] = Metabolic stability in female C57BL/6J mouse liver microsomes assessed as intrinsic clearance measured per mg of protein at 0.5 uM measured upto 45 mins in presence of NADPH regenerating system by HPLC-MS/MS analysis; assay type: ADME, Microsome; conditions: read-out: CLH
[5] = Aqueous solubility of the compound at pH 7.4; assay type: physicochemical; conditions: buffer
[6] = Lipophilicity, logD of compound at pH 7.4 by chromatographic hydrophobicity index method; assay type: physicochemical; conditions: buffer
[7] = target: Bile salt export pump (Homo sapiens, UniProt O95342); assay: Inhibition of BSEP in cryopreserved sandwich-cultured human hepatocytes by measuring reduction in TCA biliary clearance using taurocholic acid as substrate; assay type: cell-based, Hepatocyte
Bile salt export pump, sequence (O95342 whole entry): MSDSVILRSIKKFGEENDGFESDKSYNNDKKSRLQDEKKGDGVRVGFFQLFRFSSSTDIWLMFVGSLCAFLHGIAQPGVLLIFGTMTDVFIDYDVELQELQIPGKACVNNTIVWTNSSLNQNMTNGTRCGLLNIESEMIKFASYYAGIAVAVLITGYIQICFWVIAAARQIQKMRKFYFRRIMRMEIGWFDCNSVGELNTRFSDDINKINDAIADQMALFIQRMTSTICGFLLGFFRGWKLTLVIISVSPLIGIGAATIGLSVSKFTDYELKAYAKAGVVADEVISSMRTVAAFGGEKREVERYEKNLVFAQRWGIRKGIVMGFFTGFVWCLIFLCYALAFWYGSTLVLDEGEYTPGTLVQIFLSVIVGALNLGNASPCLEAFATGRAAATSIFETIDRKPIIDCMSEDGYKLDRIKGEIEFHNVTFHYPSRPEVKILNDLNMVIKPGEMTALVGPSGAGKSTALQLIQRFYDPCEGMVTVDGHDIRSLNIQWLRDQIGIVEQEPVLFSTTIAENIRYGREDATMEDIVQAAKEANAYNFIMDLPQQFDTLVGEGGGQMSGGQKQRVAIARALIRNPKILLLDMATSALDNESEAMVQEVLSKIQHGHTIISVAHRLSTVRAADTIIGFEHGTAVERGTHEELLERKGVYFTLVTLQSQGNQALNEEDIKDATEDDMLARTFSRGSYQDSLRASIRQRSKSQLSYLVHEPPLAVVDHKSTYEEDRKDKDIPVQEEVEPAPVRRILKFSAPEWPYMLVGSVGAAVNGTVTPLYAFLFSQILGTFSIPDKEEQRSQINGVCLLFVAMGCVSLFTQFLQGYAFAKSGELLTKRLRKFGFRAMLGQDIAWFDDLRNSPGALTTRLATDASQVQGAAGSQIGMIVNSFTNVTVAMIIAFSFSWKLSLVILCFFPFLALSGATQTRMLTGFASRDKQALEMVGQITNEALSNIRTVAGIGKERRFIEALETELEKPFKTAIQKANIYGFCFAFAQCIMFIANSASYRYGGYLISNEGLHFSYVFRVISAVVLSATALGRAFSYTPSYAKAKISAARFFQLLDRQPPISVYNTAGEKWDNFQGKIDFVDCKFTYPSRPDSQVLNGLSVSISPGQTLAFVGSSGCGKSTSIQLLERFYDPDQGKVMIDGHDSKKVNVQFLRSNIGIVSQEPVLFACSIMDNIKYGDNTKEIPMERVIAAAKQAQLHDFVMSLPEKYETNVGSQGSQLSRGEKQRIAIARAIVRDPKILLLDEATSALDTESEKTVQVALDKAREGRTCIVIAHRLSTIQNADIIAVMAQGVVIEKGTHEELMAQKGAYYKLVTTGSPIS

[8] = Toxicity in cynomolgus monkey assessed as drug tolerance at 12.5 to 100 mg/kg/day, po bid measured after 4 days; assay type: organism-based, Macaca fascicularis; conditions: in vivo, 96 h, dose 12.5-100 mg/kg/day, time 4 day
[9] = Total Cmax in female C57BL/6J mouse plasma at 30 mg/kg, po measured after 24 hrs by UPLC-MS/MS analysis; assay type: ADME, organism-based
[10] = target: ATP-binding cassette sub-family C member 3 (Homo sapiens, UniProt O15438); assay: Inhibition of MRP3 (unknown origin) in presence of ATP by membrane vesicular transport assay; assay type: cell membranes, Membrane vesicle
ATP-binding cassette sub-family C member 3, sequence (O15438 whole entry): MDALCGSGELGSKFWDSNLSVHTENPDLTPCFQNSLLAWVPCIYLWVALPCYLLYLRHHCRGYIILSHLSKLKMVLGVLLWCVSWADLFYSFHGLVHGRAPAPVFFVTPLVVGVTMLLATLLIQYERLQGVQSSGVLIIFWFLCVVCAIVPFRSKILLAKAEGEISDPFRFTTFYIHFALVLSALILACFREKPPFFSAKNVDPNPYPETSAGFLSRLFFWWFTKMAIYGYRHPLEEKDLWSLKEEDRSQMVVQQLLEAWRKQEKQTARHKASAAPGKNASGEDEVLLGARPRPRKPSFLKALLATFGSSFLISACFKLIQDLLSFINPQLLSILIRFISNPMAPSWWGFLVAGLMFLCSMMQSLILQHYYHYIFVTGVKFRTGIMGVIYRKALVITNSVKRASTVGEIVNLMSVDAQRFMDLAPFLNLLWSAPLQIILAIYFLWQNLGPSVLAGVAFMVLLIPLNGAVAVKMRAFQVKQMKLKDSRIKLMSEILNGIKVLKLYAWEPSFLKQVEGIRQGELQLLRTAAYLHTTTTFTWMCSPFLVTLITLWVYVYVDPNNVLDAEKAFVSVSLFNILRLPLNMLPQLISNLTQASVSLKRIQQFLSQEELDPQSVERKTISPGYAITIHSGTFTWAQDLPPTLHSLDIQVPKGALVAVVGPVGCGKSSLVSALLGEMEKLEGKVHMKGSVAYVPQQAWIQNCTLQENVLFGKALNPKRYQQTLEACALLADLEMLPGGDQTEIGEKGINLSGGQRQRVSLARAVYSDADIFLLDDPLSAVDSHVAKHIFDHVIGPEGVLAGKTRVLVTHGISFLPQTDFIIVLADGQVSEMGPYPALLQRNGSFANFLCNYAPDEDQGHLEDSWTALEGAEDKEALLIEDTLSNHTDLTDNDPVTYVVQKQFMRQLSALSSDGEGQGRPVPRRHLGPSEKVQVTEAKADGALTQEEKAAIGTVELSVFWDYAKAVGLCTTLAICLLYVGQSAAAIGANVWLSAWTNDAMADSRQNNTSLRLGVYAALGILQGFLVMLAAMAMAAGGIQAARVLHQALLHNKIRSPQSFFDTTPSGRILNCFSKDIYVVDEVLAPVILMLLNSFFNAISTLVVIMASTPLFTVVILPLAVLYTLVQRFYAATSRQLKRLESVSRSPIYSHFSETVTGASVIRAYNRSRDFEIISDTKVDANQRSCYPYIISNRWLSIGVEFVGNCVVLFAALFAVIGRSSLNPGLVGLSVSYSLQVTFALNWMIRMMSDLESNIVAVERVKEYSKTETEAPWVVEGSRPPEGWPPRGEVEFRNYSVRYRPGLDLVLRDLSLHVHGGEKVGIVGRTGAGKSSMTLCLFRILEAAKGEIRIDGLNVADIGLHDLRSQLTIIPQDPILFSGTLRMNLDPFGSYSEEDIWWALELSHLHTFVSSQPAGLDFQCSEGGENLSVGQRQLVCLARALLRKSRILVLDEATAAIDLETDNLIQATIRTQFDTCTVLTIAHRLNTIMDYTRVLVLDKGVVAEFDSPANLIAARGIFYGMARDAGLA

[11] = target: T1, Solute carrier organic anion transporter family member 1B3 (Homo sapiens, UniProt Q9NPD5); assay: Inhibition of human OATP1B3 in HEK293 cells; assay type: cell-based
T1 sequence (Q9NPD5 whole entry): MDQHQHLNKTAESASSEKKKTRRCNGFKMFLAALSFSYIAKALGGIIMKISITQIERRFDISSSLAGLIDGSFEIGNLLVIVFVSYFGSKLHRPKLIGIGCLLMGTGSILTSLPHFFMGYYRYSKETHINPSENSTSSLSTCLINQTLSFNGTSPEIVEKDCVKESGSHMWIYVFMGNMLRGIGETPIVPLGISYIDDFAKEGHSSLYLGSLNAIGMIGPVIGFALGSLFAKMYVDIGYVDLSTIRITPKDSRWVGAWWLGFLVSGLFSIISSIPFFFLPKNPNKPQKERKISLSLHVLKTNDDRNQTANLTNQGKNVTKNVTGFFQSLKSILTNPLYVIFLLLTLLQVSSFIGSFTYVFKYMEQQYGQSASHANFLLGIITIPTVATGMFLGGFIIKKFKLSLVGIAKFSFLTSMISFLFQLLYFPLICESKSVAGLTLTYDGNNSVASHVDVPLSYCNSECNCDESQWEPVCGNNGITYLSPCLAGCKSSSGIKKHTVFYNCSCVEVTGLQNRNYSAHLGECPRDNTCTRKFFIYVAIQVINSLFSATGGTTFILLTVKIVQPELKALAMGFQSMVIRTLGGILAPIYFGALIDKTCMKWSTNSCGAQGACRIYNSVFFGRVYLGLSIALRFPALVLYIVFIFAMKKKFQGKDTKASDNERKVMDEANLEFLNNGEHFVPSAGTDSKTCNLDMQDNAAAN

[12] = target: T2, Solute carrier organic anion transporter family member 1B1 (Homo sapiens, UniProt Q9Y6L6); assay: Inhibition of human OATP1B1 in HEK293 cells; assay type: cell-based
T2 sequence (Q9Y6L6 whole entry): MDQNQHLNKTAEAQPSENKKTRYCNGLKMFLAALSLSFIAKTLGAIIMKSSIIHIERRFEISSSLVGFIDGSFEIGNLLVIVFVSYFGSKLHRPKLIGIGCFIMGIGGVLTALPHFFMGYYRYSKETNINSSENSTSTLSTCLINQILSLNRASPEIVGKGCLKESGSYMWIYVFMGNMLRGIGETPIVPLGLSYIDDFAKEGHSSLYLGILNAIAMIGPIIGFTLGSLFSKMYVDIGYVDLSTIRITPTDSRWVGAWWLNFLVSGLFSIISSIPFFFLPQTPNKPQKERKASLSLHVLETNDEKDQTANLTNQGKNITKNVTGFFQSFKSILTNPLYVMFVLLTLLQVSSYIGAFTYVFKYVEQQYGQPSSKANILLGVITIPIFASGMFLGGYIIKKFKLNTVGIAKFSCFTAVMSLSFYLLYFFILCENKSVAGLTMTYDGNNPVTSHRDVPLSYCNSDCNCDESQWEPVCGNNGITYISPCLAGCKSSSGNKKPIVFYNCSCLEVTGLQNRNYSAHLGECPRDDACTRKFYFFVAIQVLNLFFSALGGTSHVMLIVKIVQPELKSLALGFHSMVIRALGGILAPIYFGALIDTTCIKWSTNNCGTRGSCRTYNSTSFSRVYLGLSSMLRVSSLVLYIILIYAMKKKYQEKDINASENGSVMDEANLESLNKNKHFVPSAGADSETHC

[13] = test system: Mus musculus; assay: Inhibition of LPA-stimulated histamine release in male CD1 mouse plasma assessed as effective dose administered as po dose pretreated for 30 mins followed by LPA addition measured after 2 mins by enzyme immunoassay; assay type: functional; conditions: 32 min
[14] = Clearance in female C57BL/6J mouse at 2 mg/kg, iv measured after 24 hrs by UPLC-MS/MS analysis; assay type: ADME, organism-based; conditions: in vivo
[15] = Half life in female C57BL/6J mouse at 2 mg/kg, iv measured after 24 hrs by UPLC-MS/MS analysis; assay type: ADME, organism-based; conditions: in vivo
[16] = Drug uptake in mouse lung at 30 mg/kg, po measured upto 24 hrs; assay type: ADME, organism-based; conditions: in vivo
[17] = Toxicity in cynomolgus monkey assessed as piloerection at 210 mg/kg/day, po bid measured after 4 days; assay type: organism-based, Macaca fascicularis; conditions: in vivo, 96 h, time 4 day
[18] = Volume of distribution at steady state in female C57BL/6J mouse at 2 mg/kg, iv measured after 24 hrs by UPLC-MS/MS analysis; assay type: ADME, organism-based; conditions: in vivo, read-out: Vdss
[19] = target: ATP-binding cassette sub-family C member 2 (Homo sapiens, UniProt Q92887); assay: Inhibition of MRP2 (unknown origin) in presence of ATP by membrane vesicular transport assay; assay type: cell membranes, Membrane vesicle
ATP-binding cassette sub-family C member 2, sequence (Q92887 whole entry): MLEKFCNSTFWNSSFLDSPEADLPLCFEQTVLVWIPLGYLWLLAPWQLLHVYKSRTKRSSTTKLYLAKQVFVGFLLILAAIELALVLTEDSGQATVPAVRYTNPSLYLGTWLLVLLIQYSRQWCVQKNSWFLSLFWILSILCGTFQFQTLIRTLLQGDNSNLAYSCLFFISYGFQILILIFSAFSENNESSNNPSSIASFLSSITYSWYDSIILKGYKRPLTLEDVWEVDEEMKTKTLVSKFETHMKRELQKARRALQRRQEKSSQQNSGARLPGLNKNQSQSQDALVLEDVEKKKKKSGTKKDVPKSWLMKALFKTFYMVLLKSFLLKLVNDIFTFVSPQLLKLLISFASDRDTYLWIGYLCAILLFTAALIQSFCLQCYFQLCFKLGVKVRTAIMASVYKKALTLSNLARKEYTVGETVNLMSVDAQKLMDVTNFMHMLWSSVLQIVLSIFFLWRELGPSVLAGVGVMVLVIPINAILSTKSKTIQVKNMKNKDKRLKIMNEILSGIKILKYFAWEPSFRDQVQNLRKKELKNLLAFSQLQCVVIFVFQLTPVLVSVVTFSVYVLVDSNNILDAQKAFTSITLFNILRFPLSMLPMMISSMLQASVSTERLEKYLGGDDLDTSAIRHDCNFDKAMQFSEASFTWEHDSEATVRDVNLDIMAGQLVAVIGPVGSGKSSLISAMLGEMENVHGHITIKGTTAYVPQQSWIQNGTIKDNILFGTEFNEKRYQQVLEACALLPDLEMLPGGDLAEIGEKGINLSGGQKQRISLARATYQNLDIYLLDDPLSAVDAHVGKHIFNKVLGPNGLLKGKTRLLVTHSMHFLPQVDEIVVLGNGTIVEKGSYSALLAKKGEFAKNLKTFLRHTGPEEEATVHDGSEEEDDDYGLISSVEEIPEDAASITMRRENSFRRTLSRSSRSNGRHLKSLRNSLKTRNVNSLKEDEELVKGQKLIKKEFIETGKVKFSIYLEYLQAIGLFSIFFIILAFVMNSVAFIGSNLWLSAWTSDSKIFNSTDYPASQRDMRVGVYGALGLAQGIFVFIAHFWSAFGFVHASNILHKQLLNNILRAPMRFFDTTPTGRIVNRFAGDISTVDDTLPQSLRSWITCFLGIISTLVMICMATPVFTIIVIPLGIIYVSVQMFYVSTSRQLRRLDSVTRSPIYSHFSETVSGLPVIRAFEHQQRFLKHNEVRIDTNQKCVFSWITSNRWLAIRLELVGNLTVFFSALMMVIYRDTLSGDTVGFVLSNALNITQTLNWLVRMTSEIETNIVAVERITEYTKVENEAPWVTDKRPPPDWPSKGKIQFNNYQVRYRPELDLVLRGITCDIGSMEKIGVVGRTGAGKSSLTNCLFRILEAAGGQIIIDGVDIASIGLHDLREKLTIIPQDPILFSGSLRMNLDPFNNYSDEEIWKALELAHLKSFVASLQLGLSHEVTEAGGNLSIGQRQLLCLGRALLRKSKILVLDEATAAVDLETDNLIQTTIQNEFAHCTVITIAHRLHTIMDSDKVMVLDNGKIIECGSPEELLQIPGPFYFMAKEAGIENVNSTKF

Compound: Cc1nc(-c2onc(C)c2NC(=O)O[C@H](C)c2ccccc2Cl)ccc1NC(=O)[C@H]1CCCC[C@@H]1C(=O)O
- Activity [1]: Toxic
- microsomal CLint at 0.5 µM [2]: 7 µL/min/mg
- Activity [3]: Toxic
- microsomal CLint at 0.5 µM [4]: 4 µL/min/mg
- solubility [5]: 505 µM (≈ 273 µg/mL)
- chromatographic logD [6]: 1.76
- IC50 [7]: 39.8 µM
- Activity [8]: Non-toxic
- Cmax [9]: 99.4 µg/mL
- IC50 [10]: 25.1 µM
- IC50 [11]: 7.94 µM
- IC50 [12]: 5.01 µM
- ED50 [13]: 0.04 mg/kg
- clearance [14]: 1.73 mL/min/kg
- half-life [15]: 1.84 h
- Drug uptake [16]: Active
- Activity [17]: Toxic
- Vd [18]: 0.16 L/kg
- IC50 [19]: > 200 µM
